Experimental data taken from ChEMBL document CHEMBL1137315, “7-Aroyl-aminoindoline-1-sulfonamides as a novel class of potent antitubulin agents” (J Med Chem, 2006).

How the values were obtained:
KB [1] = assay: Cytotoxicity against human KB cell line by methylene blue dye assay; format: functional, cell-based
MKN-45 = assay: Cytotoxicity against human MKN45 cell line by methylene blue dye assay; format: functional, cell-based
TSGH 9201 = assay: Cytotoxicity against human TSGH cell line by methylene blue dye assay; format: functional, cell-based
NCI-H460 = assay: Cytotoxicity against human H460 cell line by methylene blue dye assay; format: functional, cell-based
Tubulin (Homo sapiens) [2] = target: T1, Tubulin (Homo sapiens) (UniProt P68371+Q9H4B7+P0DPH7+P68366+Q13509+Q71U36+P04350+Q3ZCM7+P07437+P68363+Q9BQE3+Q6PEY2+Q13885+Q9BVA1+Q9BUF5); assay: Inhibition of [3H]colchicine binding to tubulin at 5 uM; format: protein-complex assay
HT-29 = assay: Cytotoxicity against human HT29 cell line by methylene blue dye assay; format: functional, cell-based
KB [3] = assay: Cytotoxicity against KB-VIN 10 cell line by methylene blue dye assay; format: functional, cell-based; conditions: Homo sapiens
Tubulin = assay: Inhibition of tubulin polymerization; format: functional, Homo sapiens
Tubulin (Homo sapiens) [4] = target: T1, Tubulin (Homo sapiens); assay: Inhibition of [3H]colchicine binding to tubulin at 1 uM; format: protein-complex assay

Row | SMILES | IC50 (KB [1]) [nM] | IC50 (MKN-45) [nM] | IC50 (TSGH 9201) [nM] | IC50 (NCI-H460) [nM] | inhibition (Tubulin (Homo sapiens) [2]) [%] | IC50 (HT-29) [nM] | IC50 (KB [3]) [nM] | IC50 (Tubulin) [nM] | inhibition (Tubulin (Homo sapiens) [4]) [%]
1 | COc1ccc(S(=O)(=O)N2CCc3cccc(NC(=O)N(C)c4ccccc4)c32)cc1 | > 10000 | > 10000 |  |  |  |  |  |  | 
2 | COc1ccc(S(=O)(=O)N2CCc3cccc(NC(=O)c4cccs4)c32)cc1 | 47 | 31 | 54 | 49 | 94 | 37 | 43 | 1700 | 75
3 | COc1ccc(S(=O)(=O)N2CCc3cccc(NC(=O)Oc4ccccc4)c32)cc1 | > 10000 | > 10000 |  |  |  |  |  |  | 
4 | COc1cc2c(c(OC)c1OC)-c1ccc(OC)c(=O)cc1[C@@H](NC(C)=O)CC2 [COLCHICINE] | 13.3 | 15 |  |  |  |  | 117 |  | 
5 | COc1ccc(S(=O)(=O)N2CCc3cccc(NC(=O)c4ccc(C#N)cc4)c32)cc1 | 105 | 89 |  |  |  |  |  |  | 
6 | COc1ccc(S(=O)(=O)N2CCc3cccc(NC(=O)c4ccc(F)cc4)c32)cc1 | 93 | 45 | 100 | 95 | 93 | 55 | 85 | 1500 | 65
7 | COc1ccc(S(=O)(=O)N2CCc3cccc(NC(=O)c4ccco4)c32)cc1 | 9.6 | 10.7 | 11.1 | 9.8 | 95 | 9.5 | 9.2 | 1200 | 74
8 | COc1ccc(S(=O)(=O)N2CCc3cccc(NC(=O)c4ccccc4)c32)cc1 | 297 | 250 | 201 | 257 |  | 192 | 180 |  | 
9 | COc1ccc(S(=O)(=O)N2CCc3cc(Br)cc(NC(=O)c4ccncc4)c32)cc1 | 91 | 86 |  |  |  |  |  |  | 
10 | COc1ccc(S(=O)(=O)N2CCc3cccc(N)c32)cc1 | 2800 | 1200 |  |  |  |  |  |  | 
11 | COC(=O)c1ccc(C(=O)Nc2cccc3c2N(S(=O)(=O)c2ccc(OC)cc2)CC3)cc1 | 376 | 312 |  |  |  |  |  |  | 
12 | COc1ccc(S(=O)(=O)N2CCc3cccc(NS(=O)(=O)c4ccccc4)c32)cc1 | 650 | 562 |  |  |  |  |  |  | 
13 | COc1ccc(S(=O)(=O)N2CCc3cccc(NCc4ccccc4)c32)cc1 | > 10000 | > 10000 | > 10000 | > 10000 |  | > 10000 | > 10000 | > 5000 | 
14 | COc1ccc(S(=O)(=O)N2CCc3cccc(NC(C)=O)c32)cc1 | 89 | 61 | 103 | 75 | 86 | 51 | 90 | 1900 | 57
15 | COc1ccc(S(=O)(=O)N2CCc3cccc(NS(=O)(=O)c4ccc([N+](=O)[O-])cc4)c32)cc1 | 1100 | 933 |  |  |  |  |  |  | 
16 | COc1ccc(S(=O)(=O)N2CCc3cccc(NC(=O)c4ccc([N+](=O)[O-])cc4)c32)cc1 | 102 | 95 | 116 | 122 | 91 | 65 | 95 | 1900 | 62
17 | COc1ccc(S(=O)(=O)N2CCc3cc(Br)cc(NC(=O)c4ccco4)c32)cc1 | 89 | 78 |  |  |  |  |  |  | 
18 | COc1ccc(S(=O)(=O)N2CCc3cccc(NC(=O)C(C)(C)C)c32)cc1 | 359 | 289 |  |  |  |  |  |  | 
19 | COc1ccc(C(=O)Nc2cccc3c2N(S(=O)(=O)c2ccc(OC)cc2)CC3)cc1 | 2600 | 1600 |  |  |  |  |  |  | 
20 | COc1ccc(S(=O)(=O)N2CCc3cccc(NC(=O)c4ccncc4)c32)cc1 | 9.6 | 8.8 | 10.8 | 9.4 | 96 | 8.6 | 8.9 | 1100 | 78
21 | COc1ccc(S(=O)(=O)N2CCc3cccc(NS(=O)(=O)c4ccc(F)cc4)c32)cc1 | 1200 | 890 |  |  |  |  |  |  | 
